Results on 21 compounds are retold here after patent publication US7169592B2, “Producing optically active amino compounds” (Kaneka Corporation, priority 1997, dated 2007).

In test [1] the test system is Arthrobacter species KNK168 strain. The test can be described thus: Inducer added during culture; (R)-DMA formation by the separated cells. Format: cell-based. Particulars: substance added to medium as inducer; reaction 30° C., 20 hours, 1% 1-(3,4-dimethoxyphenyl)-2-propanone, 1% (RS)-1-methylpropylamine. The protocol:
When culturing the Arthrobacter species KNK168 strain by the method described in Example 1, (RS)-1-methylpropylamine, (RS)-1-methylbutylamine, (RS)-3-amino-2,2-dimethylbutane, (RS)-2-amino-1-butanol, or (RS)-1-phenylethylamine was added to the medium in place of (R)-1-(3,4-dimethoxyphenyl)-2-aminopropane ((R)-DMA). The cells were separated from the culture, and the reaction was carried out at 30° C. for 20 hours using the above cells in a reaction mixture containing 1% 1-(3,4-dimethoxyphenyl)-2-propanone and 1% (RS)-1-methylpropylamine.

The test system is the same in test [2]. The test can be described thus: Amino group donors in whole-cell transamination of 1-(3,4-dimethoxyphenyl)-2-propanone. Particulars: for (R)-DMA Formed: 1% amino group donor, 1% 1-(3,4-dimethoxyphenyl)-2-propanone, 0.1% Triton X-100, pH 8.5, 35° C., 20 hours; for Function as amino group donor (in words): whole cells. Format: cell-based. The protocol: The cultured cells were harvested by centrifugation, and the harvested cells were suspended in a reaction mixture (pH 8.5) containing 1% 1-(3,4-dimethoxyphenyl)-2-propanone, 0.1% Triton X-100, and 1% an amino group donor shown in Table 5. The mixture was reacted at 35° C. for 20 hours.

Test [3] has as its target T1, ω-amino acid transaminase (Pseudomonas putida, UniProt P28269).
T1 sequence (P28269 1-449): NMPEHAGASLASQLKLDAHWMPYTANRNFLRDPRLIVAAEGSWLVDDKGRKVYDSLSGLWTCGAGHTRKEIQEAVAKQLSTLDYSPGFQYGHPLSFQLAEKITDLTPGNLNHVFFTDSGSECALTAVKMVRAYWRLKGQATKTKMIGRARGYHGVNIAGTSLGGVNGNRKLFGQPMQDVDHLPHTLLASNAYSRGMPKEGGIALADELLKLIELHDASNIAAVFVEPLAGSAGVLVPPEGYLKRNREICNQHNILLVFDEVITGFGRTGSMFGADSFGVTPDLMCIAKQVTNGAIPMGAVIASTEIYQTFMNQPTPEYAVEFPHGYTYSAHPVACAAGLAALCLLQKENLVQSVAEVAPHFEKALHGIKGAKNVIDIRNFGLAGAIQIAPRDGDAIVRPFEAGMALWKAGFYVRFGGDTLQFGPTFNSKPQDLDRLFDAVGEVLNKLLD
Conditions: purified enzyme, literature; pyruvic acid as amino group acceptor; cited from earlier work.

Test [4] deals with Transaminase of Present Invention (purified enzyme). The test can be described thus: Reactivity of purified transaminase to amino compounds (amino group donors) with pyruvic acid as acceptor. Also on record: Substrate Specificity, relative activity: concentration or dose not given beside the values. Particulars: for Substrate Specificity, relative activity: purified enzyme, pyruvic acid as amino group acceptor; for Relative Activity: amino compound 40 mM in substrate solution, pyruvic acid acceptor, pH 8.3, 30° C., 1 hour, (R)-1-phenylethylamine = 100. The test is classed as biochemical, Arthrobacter sp. KNK168. The text has this:
(§1) The differences with the ω-amino acid transaminase derived from Pseudomonas sp. F-1 (Agric. Biol. Chem., 42, 2363–2367 (1978), Agric. Biol. Chem., 43, 1043–1048 (1979), J. Biol. Chem., 258, 2260–2265 (1983)) which have been well studied among the ω-amino acid transaminases, and with the benzylamine transaminase of Okada et al. (Japanese Patent Laid-Open No. Hei 6-178685) are summarized and shown in Table 2. In a case of the transaminase reaction in the present invention, the data of the purified enzyme are used, and in cases of those by other two enzymes, the data of the purified enzymes which are disclosed in each of the literature publication and laid-open patent publication are used. Pyruvic acid is used as an amino group acceptor in all cases.
Using the purified enzyme protein obtained in Example 9, reactivities to various amino compounds when using pyruvic acid as an amino acceptor were evaluated. A 150 μl solution of the purified enzyme protein solution diluted ten-folds was added to a 150 μl substrate solution [0.1 M potassium phosphate buffer (pH 8.3), 40 mM pyruvic acid, 0.1 mM pyridoxal phosphate, and 40 mM various amino compounds]. The components were reacted at 30° C. for 1 hour. The reaction tube was transferred into boiling water to stop the reaction, and thereafter, a part of the reaction mixture was diluted five-folds. Ten μl 0.1 M boric acid buffer (pH 8.0) and a 20 μl ethanol solution of 80 mM 4-fluoro-7-nitro-2,1,3-benzoxadiazole (NBD-F) were added to the 10 μl above-mentioned diluted reaction mixture. The resulting mixture was reacted at 60° C. for 1 minute, and thereafter, the resulting mixture was ice-cooled, and 460 μl 5 mM HCl was added thereto. This reaction mixture was analyzed by high-performance liquid chromatography using a fine pack C18-5 column (manufactured by Nippon Bunko) I and using 0.1 M potassium phosphate buffer (pH 6.5) and CH3CN (90:10) as an eluent to detect formation of NBD-Alanine with an excitation wavelength of 470 nm and a detection wave of […]. The results thereof are shown in Table 8 in terms of relative activity in the case of using […] as a substrate.

For test [5], the system named is transaminase (intracellular enzyme). The test can be described thus: Activity of the transaminase (intracellular enzyme) on typical substrates of ω-aminotransferases. Format: biochemical, Arthrobacter sp. KNK168.
The subject of test [6] is benzylamine transaminase of Okada et al. Conditions: cited from earlier work; for Substrate Specificity, relative activity: purified enzyme, laid-open patent publication, pyruvic acid as amino group acceptor.
Test [7] has the same test system. Particulars: without addition = 100, cited from earlier work.
The test system of test [8] is Transaminase of Present Invention (purified enzyme). The test can be described thus: Influence of reaction inhibitors on purified transaminase. Format: biochemical, Arthrobacter sp. KNK168. Conditions: for Relative activity with inhibitor: inhibitor 1 mM, without addition = 100.
Excerpt: as §1

For test [9], the target named is T1, ω-amino acid transaminase. Conditions: inhibitor 1 mM; without addition = 100; cited from earlier work.
Test [10] relates to Transaminase of Present Invention. The test can be described thus: Usability as amino group donor, transaminase of present invention. Format: biochemical, Arthrobacter. An excerpt: Further, the transaminase derived from Arthrobacter which can be used in the present invention is different from the above-mentioned enzyme derived from Brevibacterium in many other aspects.
Where [11] appears, read: amino group acceptor 2-ketoglutaric acid, (R)-1-phenylethylamine/pyruvic acid = 100 (control).

Molecules are shown by their SMILES. Several values for one entry are separate records, joined by “and”; a condition that tells them apart may be missing. Equal entries are not always repeated. Where two headings read alike, the source gives them in different places. Marks after values point to notes of the source that are not given here.

Take `CCCC(C)N` (racemic) [(RS)-1-Methylbutylamine]: the “(R)-DMA Formed” value in [1] is 13.0%; in [2] it was 54.7% and 56.9%. Further, in test [2], the “Function as amino group donor (in words)” value is reported as “functioned as amino group donors”.

On to `CCC(C)N` (racemic) [(RS)-1-Methylpropylamine], for which the figures for the “(R)-DMA Formed” value in test [1] and in test [2] were 22.3% and 28.2%, respectively. Moreover, the “Function as amino group donor (in words)” value in test [2] is listed as “functioned as amino group donors”.

As for `CC(N)c1ccccc1` (racemic) [(RS)-1-Phenylethylamine], the “(R)-DMA Formed” value in test [1] is recorded as 8.0%. Also, in test [2], the “(R)-DMA Formed” value turned out to be 61.3% and the “Function as amino group donor (in words)” value is “functioned as amino group donors”.

As to `CCC(N)CO` (racemic) [(RS)-2-Amino-1-butanol], the “(R)-DMA Formed” value in test [1] was 12.9%.

For the compound `CC(N)C(C)(C)C` (racemic) [(RS)-3-Amino-2,2-dimethylbutane], the “(R)-DMA Formed” value in [1] stood at 18.6%.

Take `CC(N)CC(=O)O` (racemic) [DL-3-Aminobutyric acid]: the “Substrate Specificity, relative activity” value in [3] is 96%; in [4] it was 0%. For the same compound, in test [4], the “Action of the transaminase on the substance (in words)” value (“Action of the transaminase” below) is given as “does not act on”.

As to `NCCCC(=O)O` [4-Aminobutyric acid], the “Relative Activity” value in test [5] (setting [11]) was found to be 0%. Also, the “Substrate Specificity, relative activity” value in test [3] was 40%; in test [4], 0%. In addition, the “Action of the transaminase” value in test [4] is on record as “does not act on”.

Take `COc1ccc(C[C@@H](C)N)cc1OC` [(R)-DMA, (R)-1-(3,4-dimethoxyphenyl)-2-aminopropane]: the “(R)-DMA Formed” value in test [1] amounted to 0.9%. In addition, the “Relative Activity” value in test [4] was 30%.

In the case of `NCc1ccccc1` [Benzylamine], the “Action of benzylamine transaminase on the substance (in words)” value in test [6] (in the presence of pyruvic acid) is “strongly acts on”. In addition, the results for the “Substrate Specificity, relative activity” value in [6], in test [3] and in test [4] were 100%, 45% and 0.8%, respectively. The “Relative Activity” value in test [4] was found to be 0.8%.

For the compound `O=S(=O)([O-])[O-].[Cu+2]` [CuSO4], the “Relative activity with inhibitor” value in [7] (inhibitor 0.5 mM) is recorded as 5%; in test [8], 44%.

`CC(C)(S)[C@@H](N)C(=O)O` [D-Penicillamine]: the “Relative activity with inhibitor” value in test [7] (inhibitor 1 mM) was 0%; in [8], 93%.

With `NO` [Hydroxylamine], the “Relative activity with inhibitor” value in test [7] (inhibitor 0.1 mM) is on record as 30%; in test [8] it was 17%; in test [9] it was 0%. Besides, the “Influence of reaction inhibitor on the transaminase (in words)” value in test [8] is “affected only a little”.

On to `NNc1ccccc1` [Phenylhydrazine], for which, in [7] (inhibitor 1 mM), the “Relative activity with inhibitor” value is 27%. Besides, in [8], the “Influence of reaction inhibitor on the transaminase (in words)” value is “affected only a little” and the “Relative activity with inhibitor” value stood at 82%.

Consider `NCCCCN` [Putrescine], for which, in [5] (setting [11]), the “Relative Activity” value came to 0%. The “Substrate Specificity, relative activity” value in [6] was 0%; in test [3], 55%; in [4], 0%. Further, in test [4], the “Action of the transaminase” value was “does not act on”.

Consider `Cl.N` [ammonium chloride], for which the “Amino Group Donor (usable or not)” value in test [10] is listed as “cannot be used as an amino group donor”.

`N[C@@H](CC(=O)O)C(=O)O` [aspartic acid]: the “Amino Group Donor (usable or not)” value in test [10] is listed as “cannot be used as an amino group donor”.

Turning to `N[C@@H](CCC(=O)O)C(=O)O` [glutamic acid], the “Amino Group Donor (usable or not)” value in test [10] is on record as “cannot be used as an amino group donor”.

Regarding `CCCCN` [n-Butylamine], the “Substrate Specificity, relative activity” value in test [6] was 0%; in [3] it was 60%; in test [4], 0%. Also, the “Action of the transaminase” value in test [4] is “does not act on”.

For `O=C(O)c1cc[c]([Hg][Cl])cc1` [p-Chloromercuribenzoic acid], the results for the “Relative activity with inhibitor” value in test [7] (inhibitor 0.1 mM), in test [8] and in test [9] were 9%, 53% and 100%, respectively.

As to `NCCC(=O)O` [β-Alanine], the “Activity on the substance as amino group donor (in words)” value in [5] is on record as “does not act on”. In addition, in [5] (amino group acceptor pyruvic acid, (R)-1-phenylethylamine = 100 (control)), the “Relative Activity” value worked out at 0%. Besides, the entries for the “Substrate Specificity, relative activity” value in test [6], in [3] and in test [4] were 0* %, 100* % and 0* %, respectively. The “Action of the transaminase” value in test [4] is on record as “does not act on”.

In the case of `NCCc1ccccc1` [β-Phenethylamine], the results for the “Substrate Specificity, relative activity” value in test [6], in test [3] and in test [4] were 9%, 54% and 0%, respectively.
